Results from patent publication US8653120B2, “Method for treatment of chronic neuropathic pain” (Apkarian Technologies LLC, priority 2004, dated 2014).

What was measured:
Assay type in all cases: in vivo
[1] = tested on: rat exhibiting mechanical sensitivity; experiment: Analgesia after infusion into different parts of the rat brain; settings: 50 μg infusion, FIG. 5
[2] = tested on: rats treated with cisplatin; experiment: Rat model of cisplatin-induced neuropathy: mechanical sensitivity
Experimental: To model drug-induced pain, rats were treated with cisplatin (2 mg/kg), a common chemotherapy drug. As shown graphically in FIG. 4, after 14 days of treatment, the rats had developed mechanical sensitivity. […] In contrast, sensitivity was maintained in rats treated with a saline control (white bars). Thus, in rat models of cisplatin-induced neuropathy, pain behavior decreases 50% in two weeks in animals treated with cycloserine compared with animals treated with placebo.

[3] = tested on: Rats with mechanically injured paws; experiment: Rat model of neuropathic pain due to injury: tolerance to weight applied to the injured paw
Experimental: Rats with mechanically injured paws were used as models of neuropathic pain. In the test, a weight is applied to the injured paw, and the pain response is assessed. […] Rats (groups or 8-10 rats per treatment) were treated with oral saline (control) or 3, 10 or 30 mg/kg of D-cycloserine for a period of two weeks. Pain was monitored from two days before the treatment commenced for a period of 35 days total. […] The open squares represent the control. The black squares represent 30 mg/kg dosage. The two intermediate lines are 3 (lighter) and 10 mg/kg (darker). […] The black squares are the retreated animals, the white squares are the controls and the intermediate colored squares are animals treated for the first time with 30 mg/kg. […] Thus, treatment of chronic pain requires a treatment regimen that extends over a period of time, for example at least one week, sufficient to provide a benefit to the individual being treated.

[4] = tested on: Rats with mechanically injured paws; experiment: Rat model of neuropathic pain due to injury: test based on paw position; settings: same test animals as FIGS. 2A-C; FIGS. 3A-C
Experimental: Rats with mechanically injured paws were used as models of neuropathic pain. In the test, a weight is applied to the injured paw, and the pain response is assessed. […] Rats (groups or 8-10 rats per treatment) were treated with oral saline (control) or 3, 10 or 30 mg/kg of D-cycloserine for a period of two weeks. Pain was monitored from two days before the treatment commenced for a period of 35 days total. FIGS. 3A-C show results for the same test animals as FIGS. 2A-C, except using a test based on paw position as opposed to tolerance to applied weight. In this case, lower numbers reflect lesser pain.

[5] = 30 mg/kg, longer treatment period, FIG. 2C

## N[C@@H]1CON=C1O [D-cycloserine]
[1]; vs saline infusion
  analgesia after infusion into medial prefrontal cortex: result in analgesia
[1]
  analgesia after infusion into bilateral amygdala: result in analgesia
  analgesia after infusion into visual cortex: Only medial prefrontal cortex and amygdala infusions result in analgesia
[2]; cisplatin-induced neuropathy, two weeks of treatment
  decrease of pain behavior compared with placebo: 50%
[2]; oral 30 mg/kg, two treatments per day, 14 days, with cisplatin 2 mg/kg, FIG. 4
  effect on cisplatin-induced mechanical sensitivity: partial reversal of the mechanical sensitivity
[3]; 30 mg/kg re-treatment starting 1 day after end of the 35 day test, FIG. 2B
  analgesic effectiveness on re-treatment vs first treatment: about twice as great
[3]; [5]
  post-treatment duration of analgesia after longer treatment: significant analgesic affect being observed 30 days after cessation of treatment
  time course of analgesic effect with longer treatment: analgesic effect increases with treatment for a period of three weeks, after which a plateau is reached
[3]; acute oral or intrathecal administration
  analgesic effect of acute administration on neuropathic behavior: only minimal analgesic effects
[3]; after end of two-week oral treatment, FIG. 2A
  post-treatment analgesia: long-lasting analgesia
[3]; after two-week oral treatment, FIG. 2A
  day of return to initial neuropathy levels: 35 days
[3]; oral 3, 10 or 30 mg/kg for two weeks, vs saline, FIG. 2A
  analgesic response during treatment (tolerated weight on injured paw): generally dose-dependent response
[4]
  pain measured by paw position (lower numbers reflect lesser pain): indicates the effectiveness of the D-cycloserine
